Experimental data published in patent US9974768B2, “Pharmaceutical for improving dysphagia” (MEIJI SEIKA PHARMA CO., LTD., priority 2013, dated 2018).
Entries after “also recorded” stand apart in the source; their conditions may differ.

Legend:
[1] = system: guinea pig dysphagia model induced by repeated administrations of haloperidol; experiment: Swallowing reflex improvement in guinea pig dysphagia model induced by repeated administrations of haloperidol (water drinking frequency); type: in vivo
normal guinea pig = experiment: Swallowing reflex in normal guinea pig after local pharyngeal administration of substance P receptor antagonist FK888; type: in vivo
Description: FIG. 4 is a graph showing the results of a study of decrease in a swallowing reflex in a normal guinea pig by local administration to a pharyngeal site of a substance P receptor antagonist, and an improving effect by a prior local administration to the pharyngeal site of a captopril aqueous solution in Example 3.
FK888 (10 μM, 50 μL/guinea pig), which is a substance P receptor antagonist, was administered locally with a spray device to a pharyngeal site of a guinea pig, and water drinking reflection frequency was measured in the same way as in Experiment 1.

Hartley guinea pigs = experiment: Swallowing reflex decrease by repeated administrations of haloperidol (water drinking frequency); type: in vivo, guinea pig; conditions: haloperidol 1 mg/kg s.c. twice per day for 7 days, compared to physiological saline group
Description: To 6 week-old female Hartley guinea pigs (330 to 390 g) habituated for 1 week after receipt, a physiological saline solution, or a haloperidol solution was injected subcutaneously in a dosage of 1 mg/kg approx. every 12 hours twice per day for 7 days. Thereafter, a guinea pig was fixed at extremities, and 500 μL of distilled water was injected over 5 sec through a device to a part just before the pharynx, and the total frequency of swallowing until 10 sec and 30 sec from the injection was measured based on a muscle movement in a pharyngeal site. Thereafter a physiological saline solution, or a haloperidol solution was injected again (1 mg/kg).
The measurements were repeated totally 4 times at intervals of 1 min. […] Based on the result, the guinea pig was used as a dysphagia model induced by repeated administrations of haloperidol in the following experiments for evaluation of drug efficacy.

[2] = system: blood pressure increase induced by angiotensin I; experiment: Blood pressure increase induced by intravenous angiotensin I in normal rat; conditions: angiotensin I 300 ng/kg i.v. after 1 hour
Description: The respective dose of a captopril, or lisinopril aqueous solution was administered orally and the blood pressures were measured after 1 hour. Thereafter, angiotensin I was administered intravenously (300 ng/kg) to induce blood pressure increase and a change in the mean blood pressure was measured.

CN(Cc1ccccc1)C(=O)[C@H](Cc1ccc2ccccc2c1)NC(=O)[C@@H]1C[C@@H](O)CN1C(=O)c1cn(C)c2ccccc12 [FK888]
increase in water drinking frequency by lisinopril (50 nM, 100 μL) ([1]; FK888 10 nM, 100 μL sprayed to pharyngeal mucosa 15 min after lisinopril administration): almost completely suppressed | influence on swallowing reflex (normal guinea pig; FK888 10 nM, 100 μL, local, stated as lower limit): not influencing swallowing reflex | swallowing reflex (water drinking reflection frequency) (normal guinea pig; FK888 10 μM, 50 μL/guinea pig, single local spray to pharyngeal site): decrease in swallowing reflex

C[C@H](CS)C(=O)N1CCC[C@H]1C(=O)O [captopril]
water drinking frequency ([1]; 100 μL of 50 μM aqueous solution, single spray to pharyngeal mucosa, 30 min after administration): significant increase; also recorded: exhibited an improving effect on dysphagia | water drinking frequency ([1]; 100 μL of 50 mM aqueous solution, single spray to pharyngeal mucosa, 30 min after administration): significant increase; also recorded: exhibited an improving effect on dysphagia | water drinking frequency (dysphagia improving effect) ([1]; oral (intragastric) administration, same dose as 100 μL of 50 μM solution, 30 min after administration): did not exert an influence | water drinking frequency (dysphagia improving effect) ([1]; oral (intragastric) administration, same dose as 100 μL of 50 mM solution, 30 min after administration): did not exert an influence | decrease in swallowing reflex by FK888 administration (normal guinea pig; captopril aqueous solution sprayed to pharyngeal site in a single dose 30 min before FK888): suppressed

O=C(CCCN1CCC(O)(c2ccc(Cl)cc2)CC1)c1ccc(F)cc1 [haloperidol]
water drinking frequency (Hartley guinea pigs): significantly decreased

NCCCC[C@H](N[C@@H](CCc1ccccc1)C(=O)O)C(=O)N1CCC[C@H]1C(=O)O [lisinopril]
dose (solution concentration) with significant increase in water drinking frequency ([1]; 100 μL aqueous solution, single spray to pharyngeal mucosa): ≥ 50 nM | water drinking frequency ([1]; 100 μL of 0.5 nM to 500 μM aqueous solution, single spray to pharyngeal mucosa): dose-dependent increase | water drinking frequency ([1]; 100 μL of 50 nM aqueous solution, single spray to pharyngeal mucosa, 30 min after administration): increase in water drinking frequency | dose per administration giving dysphagia improving effect in a human ([1]; converted for a human having an average body weight of 60 kg): ≥ 300 ng | dysphagia improvement effective dose based on body weight ([1]; converted from effective dose obtained in Examples): 0.005 µg/kg | water drinking frequency (dysphagia improving effect) ([1]; local administration of 100 μL of 50 μM aqueous solution to pharyngeal mucosa, 2 hours after administration): exhibited an improving effect on dysphagia | water drinking frequency (dysphagia improving effect) ([1]; oral (intragastric) administration of same dose as local (100 μL of 50 mM solution), 2 hours after administration): exerted no influence; also recorded: no dysphagia improving effect was observed | vasopressor reaction by administration of angiotensin I (change in mean blood pressure) ([2]; 100 μL of 5 μM aqueous solution orally): had no influence | vasopressor reaction by administration of angiotensin I (change in mean blood pressure) ([2]; 100 μL of 5 mM aqueous solution orally): suppressed a vasopressor reaction
